≈ marks a conversion by molar mass, not a printed value.
Conditions: 25 °C

SMILES: COC(=O)c1ccccc1CS(=O)(=O)NC(=O)Nc1nc(OC)cc(OC)n1
- solubility: 0.292 mM (≈ 120 µg/mL)

SMILES: c1ccc2[nH]c(-c3cscn3)nc2c1
- solubility: 0.248 mM (≈ 50 µg/mL)

SMILES: CCCSP(=O)(OCC)SCCC
- solubility: 3.09 mM (≈ 750 µg/mL)

SMILES: O=C1C2CC=CCC2C(=O)N1SC(Cl)(Cl)Cl (stereo not drawn)
- solubility: 0.017 mM (≈ 5.1 µg/mL)

SMILES: CCN(CC)C(=O)SCc1ccc(Cl)cc1
- solubility: 0.109 mM (≈ 28 µg/mL)

SMILES: CC(C)C(Nc1ccc(C(F)(F)F)cc1Cl)C(=O)OC(C#N)c1cccc(Oc2ccccc2)c1 (stereo not drawn)
- solubility: 6.29e-06 mM (≈ 0.00316 µg/mL)

SMILES: CC(C)[C@H](C(=O)OC(C#N)c1cccc(Oc2ccccc2)c1)c1ccc(OC(F)F)cc1 (stereo partly drawn)
- solubility: 0.000133 mM (≈ 0.06 µg/mL)

SMILES: COP(=O)(NC(C)=O)SC (stereo not drawn)
- solubility: 4470 mM (≈ 818000 µg/mL)

SMILES: CNC(=O)Oc1ccc(SC)c(C)c1
- solubility: 0.107 mM (≈ 22.5 µg/mL)

SMILES: CC(C)NC(=O)N1CC(=O)N(c2cc(Cl)cc(Cl)c2)C1=O
- solubility: 0.0421 mM (≈ 13.9 µg/mL)

SMILES: Cn1c(=O)on(-c2ccc(Cl)c(Cl)c2)c1=O
- solubility: 0.00575 mM (≈ 1.5 µg/mL)

SMILES: CC(C)(C)C(=O)C(Oc1ccc(Cl)cc1)n1cncn1 (stereo not drawn)
- solubility: 0.243 mM (≈ 71.5 µg/mL)

SMILES: COC(=O)Nc1cccc(OC(=O)Nc2cccc(C)c2)c1
- solubility: 0.0161 mM (≈ 4.85 µg/mL)

Reference: the OPERA property sets (Mansouri et al. 2018)
